Assay results published in ChEMBL document CHEMBL5465560, “Selectivity Literature for EUbOPEN Chemogenomic Library” (2024).

Columns and labels:
[1] = target: Tyrosine-protein kinase Fgr (Homo sapiens) (UniProt P09769); test: Selectivity interaction (KinomeScan (DiscoverX)) EUB0000695a FGR; conditions: at 100 nM
[2] = target: T1, Serine/threonine-protein kinase BRSK2 (Homo sapiens) (UniProt Q8IWQ3); test: Selectivity interaction (LanthaScreen Eu Kinase Binding Assay) EUB0001632a BRSK2; conditions: at 10 µM
T1 sequence (whole entry): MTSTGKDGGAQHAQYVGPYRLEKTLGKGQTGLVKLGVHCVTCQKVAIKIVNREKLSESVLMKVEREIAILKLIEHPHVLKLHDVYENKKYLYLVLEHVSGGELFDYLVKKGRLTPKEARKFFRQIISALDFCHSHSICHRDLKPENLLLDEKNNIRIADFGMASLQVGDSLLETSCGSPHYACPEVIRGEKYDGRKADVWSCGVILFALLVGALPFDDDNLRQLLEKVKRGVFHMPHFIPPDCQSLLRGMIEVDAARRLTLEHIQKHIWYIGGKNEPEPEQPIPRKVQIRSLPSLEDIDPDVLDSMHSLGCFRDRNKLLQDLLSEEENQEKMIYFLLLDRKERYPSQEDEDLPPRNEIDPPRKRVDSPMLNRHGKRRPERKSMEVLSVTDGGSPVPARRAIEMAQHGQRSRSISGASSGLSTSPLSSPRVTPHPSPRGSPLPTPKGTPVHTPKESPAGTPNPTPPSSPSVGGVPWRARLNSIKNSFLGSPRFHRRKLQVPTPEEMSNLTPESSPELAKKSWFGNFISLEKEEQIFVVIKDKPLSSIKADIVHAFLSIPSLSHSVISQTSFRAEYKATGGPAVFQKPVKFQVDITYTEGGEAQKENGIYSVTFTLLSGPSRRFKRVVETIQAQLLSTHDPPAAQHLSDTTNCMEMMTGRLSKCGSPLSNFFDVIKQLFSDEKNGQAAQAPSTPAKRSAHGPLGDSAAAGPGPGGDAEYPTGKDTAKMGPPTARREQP

[3] = target: T2, Tyrosine-protein kinase ZAP-70 (Homo sapiens) (UniProt P43403); conditions: at 10 µM
T2 sequence (whole entry): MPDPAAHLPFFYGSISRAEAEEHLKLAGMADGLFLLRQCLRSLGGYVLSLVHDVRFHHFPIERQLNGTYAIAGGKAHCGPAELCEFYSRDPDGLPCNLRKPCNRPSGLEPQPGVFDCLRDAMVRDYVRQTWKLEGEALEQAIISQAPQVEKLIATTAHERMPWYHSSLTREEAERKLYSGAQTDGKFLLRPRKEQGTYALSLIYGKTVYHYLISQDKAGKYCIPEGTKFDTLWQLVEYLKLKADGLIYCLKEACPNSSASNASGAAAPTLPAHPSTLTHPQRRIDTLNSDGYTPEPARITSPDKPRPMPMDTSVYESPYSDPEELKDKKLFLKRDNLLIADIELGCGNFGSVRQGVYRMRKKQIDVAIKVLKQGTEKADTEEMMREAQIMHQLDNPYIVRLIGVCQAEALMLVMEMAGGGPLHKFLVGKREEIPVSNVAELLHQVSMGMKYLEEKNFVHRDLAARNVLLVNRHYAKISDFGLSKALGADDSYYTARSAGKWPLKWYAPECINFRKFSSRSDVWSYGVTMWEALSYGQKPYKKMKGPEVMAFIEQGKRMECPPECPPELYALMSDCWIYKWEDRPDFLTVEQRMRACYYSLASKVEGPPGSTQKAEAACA

[4] = target: Kappa-type opioid receptor (Homo sapiens, UniProt P41145); test: Selectivity interaction (Panel of kinases, GPCRs, ion channels and transporters (enzymatic assay)) EUB0000223bCl OPRK1
[5] = target: Mitogen-activated protein kinase 7 (Homo sapiens) (UniProt Q13164); test: Selectivity interaction (KinomeScan (DiscoverX)) EUB0000092b MAPK7; conditions: at 10 µM
[6] = target: T3, Activin receptor type-1B (Homo sapiens) (UniProt P36896); test: Selectivity interaction (Ambit KINOMEscan and KiNATiv profiling in Jurkat cells) EUB0000090b ACVR1B; assay type: cell-based; conditions: at 1 µM
T3 sequence (whole entry): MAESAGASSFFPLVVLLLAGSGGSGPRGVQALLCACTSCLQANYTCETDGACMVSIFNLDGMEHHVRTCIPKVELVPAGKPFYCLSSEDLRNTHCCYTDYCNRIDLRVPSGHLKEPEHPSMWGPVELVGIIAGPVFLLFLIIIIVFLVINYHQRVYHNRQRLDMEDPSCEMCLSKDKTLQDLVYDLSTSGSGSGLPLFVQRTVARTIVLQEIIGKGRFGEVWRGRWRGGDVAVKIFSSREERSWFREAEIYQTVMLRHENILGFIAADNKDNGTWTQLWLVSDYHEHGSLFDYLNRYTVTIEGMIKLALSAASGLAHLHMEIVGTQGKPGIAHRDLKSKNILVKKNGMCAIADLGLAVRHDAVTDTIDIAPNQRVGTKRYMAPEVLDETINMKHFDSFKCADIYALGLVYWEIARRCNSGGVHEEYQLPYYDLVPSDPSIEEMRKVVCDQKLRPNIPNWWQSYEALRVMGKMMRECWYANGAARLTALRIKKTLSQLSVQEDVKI

[7] = target: RAC-beta serine/threonine-protein kinase (Homo sapiens) (UniProt P31751); test: Selectivity interaction (Ambit KINOMEscan and KiNATiv profiling in Jurkat cells) EUB0000090b AKT2; assay type: cell-based; conditions: at 1 µM
[8] = target: T4, Non-receptor tyrosine-protein kinase TNK1 (Homo sapiens) (UniProt Q13470); test: Selectivity interaction (Ambit KINOMEscan and KiNATiv profiling in Jurkat cells) EUB0000090b TNK1; assay type: cell-based; conditions: at 1 µM
T4 sequence (whole entry): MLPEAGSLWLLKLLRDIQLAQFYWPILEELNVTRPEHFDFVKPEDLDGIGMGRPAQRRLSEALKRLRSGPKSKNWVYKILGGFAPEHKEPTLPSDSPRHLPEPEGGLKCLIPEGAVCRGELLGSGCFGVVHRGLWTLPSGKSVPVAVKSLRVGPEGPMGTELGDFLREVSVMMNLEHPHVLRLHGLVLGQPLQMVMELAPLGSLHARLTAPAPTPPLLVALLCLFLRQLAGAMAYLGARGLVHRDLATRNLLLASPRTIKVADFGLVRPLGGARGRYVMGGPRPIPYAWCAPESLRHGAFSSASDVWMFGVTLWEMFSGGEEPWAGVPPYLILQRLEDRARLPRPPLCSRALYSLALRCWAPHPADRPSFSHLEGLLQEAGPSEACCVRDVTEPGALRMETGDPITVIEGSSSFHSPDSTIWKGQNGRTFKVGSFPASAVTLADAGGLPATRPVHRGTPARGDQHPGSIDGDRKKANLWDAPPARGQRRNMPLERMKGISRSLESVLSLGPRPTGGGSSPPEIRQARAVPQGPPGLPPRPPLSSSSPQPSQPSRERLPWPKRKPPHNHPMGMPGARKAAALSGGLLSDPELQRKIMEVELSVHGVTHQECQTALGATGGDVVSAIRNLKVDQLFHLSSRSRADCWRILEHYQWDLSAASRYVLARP

Kappa-type opioid receptor, sequence (P41145 whole entry): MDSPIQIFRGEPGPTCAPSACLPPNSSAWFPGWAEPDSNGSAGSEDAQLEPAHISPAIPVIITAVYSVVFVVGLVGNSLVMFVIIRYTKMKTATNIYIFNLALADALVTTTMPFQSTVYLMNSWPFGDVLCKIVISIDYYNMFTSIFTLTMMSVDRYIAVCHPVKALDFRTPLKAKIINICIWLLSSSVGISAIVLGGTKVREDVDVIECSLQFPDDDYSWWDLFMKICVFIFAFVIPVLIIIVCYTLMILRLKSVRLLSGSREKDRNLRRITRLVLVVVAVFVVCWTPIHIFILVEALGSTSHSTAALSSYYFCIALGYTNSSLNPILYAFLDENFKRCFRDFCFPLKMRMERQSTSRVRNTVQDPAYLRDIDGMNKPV
RAC-beta serine/threonine-protein kinase (Homo sapiens), sequence (P31751 whole entry): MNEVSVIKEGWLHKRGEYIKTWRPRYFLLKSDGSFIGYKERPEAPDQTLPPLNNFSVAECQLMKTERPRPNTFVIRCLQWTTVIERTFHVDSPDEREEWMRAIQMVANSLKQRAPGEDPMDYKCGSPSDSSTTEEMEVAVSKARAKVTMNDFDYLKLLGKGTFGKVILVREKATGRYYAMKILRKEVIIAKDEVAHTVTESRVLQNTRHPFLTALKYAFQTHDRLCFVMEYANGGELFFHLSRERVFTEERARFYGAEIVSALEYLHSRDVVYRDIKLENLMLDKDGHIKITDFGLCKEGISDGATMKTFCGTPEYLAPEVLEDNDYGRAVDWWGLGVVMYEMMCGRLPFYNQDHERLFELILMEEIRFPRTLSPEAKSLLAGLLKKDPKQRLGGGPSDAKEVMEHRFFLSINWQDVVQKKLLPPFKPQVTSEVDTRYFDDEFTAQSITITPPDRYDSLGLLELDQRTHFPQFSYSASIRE
Mitogen-activated protein kinase 7 (Homo sapiens), sequence (Q13164 2-816 limits assumed): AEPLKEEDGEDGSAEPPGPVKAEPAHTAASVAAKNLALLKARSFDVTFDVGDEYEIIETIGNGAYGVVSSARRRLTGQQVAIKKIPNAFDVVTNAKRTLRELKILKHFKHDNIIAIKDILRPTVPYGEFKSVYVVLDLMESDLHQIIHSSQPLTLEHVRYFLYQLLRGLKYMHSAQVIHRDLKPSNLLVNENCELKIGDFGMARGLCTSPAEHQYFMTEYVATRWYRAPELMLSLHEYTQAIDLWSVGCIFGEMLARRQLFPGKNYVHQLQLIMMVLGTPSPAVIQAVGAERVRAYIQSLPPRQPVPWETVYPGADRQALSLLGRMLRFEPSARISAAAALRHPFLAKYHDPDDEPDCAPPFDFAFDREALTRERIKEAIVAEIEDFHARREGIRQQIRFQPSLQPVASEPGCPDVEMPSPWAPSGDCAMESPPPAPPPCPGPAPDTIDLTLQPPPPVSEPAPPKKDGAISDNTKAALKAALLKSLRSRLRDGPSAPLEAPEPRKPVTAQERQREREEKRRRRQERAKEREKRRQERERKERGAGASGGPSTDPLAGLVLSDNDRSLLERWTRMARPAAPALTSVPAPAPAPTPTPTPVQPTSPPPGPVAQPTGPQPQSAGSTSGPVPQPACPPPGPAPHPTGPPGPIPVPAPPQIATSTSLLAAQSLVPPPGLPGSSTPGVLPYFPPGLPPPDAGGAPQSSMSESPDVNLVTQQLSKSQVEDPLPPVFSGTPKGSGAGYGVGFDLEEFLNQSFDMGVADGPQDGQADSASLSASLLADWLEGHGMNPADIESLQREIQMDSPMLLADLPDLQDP
Tyrosine-protein kinase Fgr (Homo sapiens), sequence (P09769 2-529 limits assumed): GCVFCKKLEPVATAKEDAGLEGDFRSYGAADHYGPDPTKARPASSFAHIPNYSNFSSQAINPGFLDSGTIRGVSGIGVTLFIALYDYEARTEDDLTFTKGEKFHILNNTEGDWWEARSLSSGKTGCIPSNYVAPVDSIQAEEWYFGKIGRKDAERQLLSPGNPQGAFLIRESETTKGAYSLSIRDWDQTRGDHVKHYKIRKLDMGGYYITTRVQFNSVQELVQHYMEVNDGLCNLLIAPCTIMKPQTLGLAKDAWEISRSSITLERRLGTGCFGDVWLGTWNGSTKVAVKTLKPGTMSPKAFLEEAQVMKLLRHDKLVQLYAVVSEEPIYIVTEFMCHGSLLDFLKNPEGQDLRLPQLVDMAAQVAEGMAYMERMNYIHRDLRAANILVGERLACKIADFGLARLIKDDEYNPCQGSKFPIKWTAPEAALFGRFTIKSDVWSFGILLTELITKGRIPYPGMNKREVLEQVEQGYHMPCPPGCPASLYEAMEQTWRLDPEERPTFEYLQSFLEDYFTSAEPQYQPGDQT

Cc1cc(F)c(C(=O)Nc2cccc(-c3nncn3C(C)C)n2)cc1-n1cnc(C2CC2)c1
% of control [1]: 96%

Cn1cc(-n2cnc3c(NCc4nc5cc(Cl)c(Cl)cc5[nH]4)nc(N4CCOCC4)nc32)cn1
% of inhibition [2]: -172%

Cc1cc([C@@H](C)Nc2ccccc2C(=O)O)c2nc(N3CCOCC3)cc(=O)n2c1 [AZD-6482]
% of control [3]: 100%

COc1cc(C(=O)N2CC[C@@H](O)[C@@H](N)C2)cc2nc(-c3cc4ccccc4n3CC3CC3)n(C)c12
pXC50 [4]: < 4 M

CCC(=O)N1CCN(c2ccc(-n3c(=O)ccc4cnc5ccc(-c6cnc7ccccc7c6)cc5c43)cc2C(F)(F)F)CC1
% of control [5]: 100%

CN(C)C/C=C/C(=O)Nc1ccc(C(=O)N2CCCC(Nc3ncc(Cl)c(-c4c[nH]c5ccccc45)n3)C2)cc1 (stereo not drawn)
% of control [6]: 96% | % of control [7]: 80% | % of control [8]: 96%
